Measured values: patent publication US5952321A, “Substituted azetidinones as anti-inflammatory and antidegenerative agents” (Merck & Co., Inc., priority 1996, dated 1999)
Where two headings read alike, the source gives them in different places.

Molecular target: T1, Human Polymorphonuclear Leukocyte Elastase (Homo sapiens, UniProt P08246)
T1 sequence (P08246 30-267): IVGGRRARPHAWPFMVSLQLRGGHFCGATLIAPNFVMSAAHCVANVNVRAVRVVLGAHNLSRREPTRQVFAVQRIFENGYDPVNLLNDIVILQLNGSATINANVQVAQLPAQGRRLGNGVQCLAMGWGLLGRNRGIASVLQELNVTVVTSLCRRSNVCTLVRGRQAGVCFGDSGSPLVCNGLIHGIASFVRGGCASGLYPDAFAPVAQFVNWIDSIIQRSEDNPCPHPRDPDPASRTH
Assay: Inhibition of human polymorphonuclear leukocyte elastase via hydrolysis of Boc-AAPAN or Boc-AAPVN
Type: biochemical
Conditions: second order rate constant for inactivation of the enzyme, read-out: Kobs /[I]
Experimental: Enzyme Assays for the Inhibition of Human Polymorphonuclear Leukocyte Elastase Via Hydrolysis of N-t-Boc-alanyl-alanyl-prolylalanine-p-nitroanilide (Boc-AAPAN) or […] (Boc-AAPVN) Reagent:
0.05M TES (N-tris[hydroxymethyl]methyl-2-amino-ethanesulfonic acid) Buffer, pH 7.5.
0.2 mM Boc-AAPAN or Boc-AAPVN.
To prepare substrate, the solid was first dissolved in 10.0 ml DMSO. Buffer at pH 7.5 was then added to a final volume of 100 ml.
Crude extract of human polymorphonuclear leukocytes (PMN) containing elastase activity.
Inhibitors (azetidinones) to be tested dissolved in DMSO just before use.
To 1.0 ml of 0.2 mM Boc-AAPAN in a cuvette, 0.01-0.1 ml of DMSO with or without inhibitor was added. After mixing, a measurement was taken at 410 mμ to detect any spontaneous hydrolysis due to presence of test compound. 0.05 Milliliters of PMN extract was then added and the ΔOD/min at 410 mμ was measured and recorded. Beckman model 35 spectrophotometer was used.
Results in Tables I to III were reported as ID50, effective dosage in micrograms per milliliter (μg/ml) for 50% inhibition of the enzyme activity 2 minutes after zero time.
Results were also expressed as Ki, the micromolar concentration of the inhibitor (μM) giving 50% of the control enzyme activity; or as ^k obs/I which is the second order rate constant in per mole per second for inactivation of the enzyme.
The elastase activity in the crude PMN extract may vary from one preparation to another. A control of each new batch is run, and the volume added in the assay procedure is adjusted according to activity.

CCC[C@@H](NC(=O)N1C(=O)C(CC)(CC)[C@@H]1Oc1ccc(CN2CCN(C(=O)N(C)C)CC2)cc1)c1ccc(C)cc1 [(4S)-3,3-Diethyl-1-[(R)-α-n-propyl-(4-methyl)benzylaminocarbonyl]-4-[(4-((4-dimethylaminocarbonyl)piperazin-1-yl)methyl)phenoxy]azetidin-2-one] gave a kinact/KI (pH 7.5, Table I) of 1.55e+06 M⁻¹ s⁻¹.

In the case of CCC[C@@H](NC(=O)N1C(=O)C(CC)(CC)[C@@H]1Oc1ccc(CN(CC)CCOC)cc1)c1ccc(OC)cc1, the kinact/KI (pH 7.5, Table III) is reported as 1e+06 M⁻¹ s⁻¹.

Work on CCC[C@@H](NC(=O)N1C(=O)C(CC)(CC)[C@@H]1Oc1ccc(CN(CC)CCSC)cc1)c1ccc(C)cc1 [R4=Et; R5=CH2 CH2 SMe; R6=H] yielded a kinact/KI (pH 7.5, Table I) of 690000 M⁻¹ s⁻¹.

CCC[C@@H](NC(=O)N1C(=O)C(CC)(CC)[C@@H]1Oc1ccc(C(COC)N2CCCC2)cc1)c1ccc(C)cc1 (mixture of isomers) [R4+R5=--CH2 CH2 CH2 CH2 --; R6=CH2 OMe, 3,3-Diethyl-1-[(R)-α-(n-propyl)-4-(methyl)benzylaminocarbonyl]-4-(S)-[4-{1-(RS)-(1-pyrrolidino)-2-methoxyethyl}phenoxy]azetidin-2-one] gave a kinact/KI (pH 7.5, Table I) of 1.7e+06 M⁻¹ s⁻¹.

CCC[C@@H](NC(=O)N1C(=O)C(CC)(CC)[C@@H]1Oc1ccc([C@@H](C)N(C)CCOC)cc1)c1ccc(C)cc1 [R4=Me; R5=CH2 CH2 OMe; R6=(R)--Me, (4S)-3,3-diethyl-4-{(R)-4-[1-((2-methoxyethyl)methylamino)ethyl]phenoxy}-1-[(R)-α-n-propyl-(4-methyl)benzylaminocarbonyl]azetidin-2-one] was tested, and the kinact/KI (pH 7.5, Table I) was 525000 M⁻¹ s⁻¹.

Compound CCC[C@@H](NC(=O)N1C(=O)C(CC)(CC)[C@@H]1Oc1ccc(CN(C)CCOCC)cc1)c1ccc(C)cc1 [R4=Me; R5=CH2 CH2 OEt; R6=H, (4S)-3,3-Diethyl-1-[(R)-α-n-propyl-(4-methyl)benzylaminocarbonyl]-4-[(4-(2-ethoxyethyl)methylaminomethyl)phenoxy]azetidin-2-one] has a kinact/KI (pH 7.5, Table I) of 600000 M⁻¹ s⁻¹.

In the case of CCC[C@@H](NC(=O)N1C(=O)C(CC)(CC)[C@@H]1Oc1ccc(CN(CC)C(C)COC)c(OC)c1)c1ccc(C)cc1 (stereo partly shown), the kinact/KI (pH 7.5, Table III) is reported as 1.3e+06 M⁻¹ s⁻¹.

With CCC[C@@H](NC(=O)N1C(=O)C(CC)(CC)[C@@H]1Oc1ccc(C(C)N2CCOCC2)cc1)c1ccc(C)cc1 (stereo partly shown) [R4+R5=--CH2 CH2 OCH2 CH2 --; R6=Me] the kinact/KI (pH 7.5, Table I) was 460000 M⁻¹ s⁻¹.

For CCC[C@@H](NC(=O)N1C(=O)C(CC)(CC)[C@@H]1Oc1ccc(CN2CCN(c3ncccn3)CC2)cc1)c1ccc(C)cc1, the kinact/KI (pH 7.5, Table I) was 715000 M⁻¹ s⁻¹.

For CCC[C@@H](NC(=O)N1C(=O)C(CC)(CC)[C@@H]1Oc1ccc(CN2CCC[C@H]2CO)cc1)c1ccc(C)cc1 [R4+R5=--CH2 CH2 CH2 CH(S--CH2 OH); R6=H], the kinact/KI (pH 7.5, Table I) was 950000 M⁻¹ s⁻¹.

Compound CCC[C@@H](NC(=O)N1C(=O)C(CC)(CC)[C@@H]1Oc1ccc(CN2CCN(C(=O)N(CC)CC)CC2)cc1)c1ccc(C)cc1 has a kinact/KI (pH 7.5, Table I) of 1.4e+06 M⁻¹ s⁻¹.

CCC[C@@H](NC(=O)N1C(=O)C(CC)(CC)[C@@H]1Oc1ccc(CN(CCOC)CCOC)cc1)c1ccc(C)cc1 [R4=CH2 CH2 OMe; R5=CH2 CH2 OMe; R6=H] was tested, and the kinact/KI (pH 7.5, Table I) was 820000 M⁻¹ s⁻¹.

For CCC[C@@H](NC(=O)N1C(=O)C(CC)(CC)[C@@H]1Oc1ccc(CN)cc1)c1ccc(C)cc1 [R4=H; R5=H; R6=H, (4S)-3,3-Diethyl-1-[(R)-α-(n-propyl)-4-(methyl)benzylaminocarbonyl]-4-[(4-aminomethyl)phenoxy]azetidin-2-one], the kinact/KI (pH 7.5, Table I) was 325000 M⁻¹ s⁻¹.

CCC[C@@H](NC(=O)N1C(=O)C(CC)(CC)[C@@H]1Oc1ccc(CCN(C)CCN(C)C)cc1)c1ccc(C)cc1 [R4=Me; R5=CH2 CH2 NMe2; n=2, (4S)-3,3-Diethyl-1-[(R)-α-n-propyl-(4-methyl)benzylaminocarbonyl]-4-[(4-(2-((2-dimethylamino)ethyl)methylamino)ethyl)phenoxy]azetidin-2-one] showed a kinact/KI (pH 7.5, Table II) of 1.2e+06 M⁻¹ s⁻¹.

CCC[C@@H](NC(=O)N1C(=O)C(CC)(CC)[C@@H]1Oc1ccc(CN(C)CCOC(=O)C(C)C)cc1)c1ccc(C)cc1 [R4=Me; R5=CH2 CH2 OCOCHMe2; R6=H] gave a kinact/KI (pH 7.5, Table I) of 630000 M⁻¹ s⁻¹.

CCC[C@@H](NC(=O)N1C(=O)C(CC)(CC)[C@@H]1Oc1ccc(C(COC)N(C)CCC)cc1)c1ccc(C)cc1 (mixture of isomers) [R4=Me; R5=n-Pr; R6=CH2 OMe, 3,3-Diethyl-1-[(R)-α-(n-propyl)-4-(methyl)benzylaminocarbonyl]-4-(S)-[4-{1-(RS)-(N-(n-propyl)-N-(methyl)amino)-2-methoxyethyl}phenoxy]azetidin-2-one] was tested, and the kinact/KI (pH 7.5, Table I) was 1.5e+06 M⁻¹ s⁻¹.

For CCC[C@@H](NC(=O)N1C(=O)C(CC)(CC)[C@@H]1Oc1ccc(CN(C)CCN(C)C(=O)N(C)C)cc1)c1ccc(C)cc1 [R4=Me; R5=CH2 CH2 N(Me)CONMe2; R6=H], the kinact/KI (pH 7.5, Table I) was 850000 M⁻¹ s⁻¹.

With CCC[C@@H](NC(=O)N1C(=O)C(CC)(CC)[C@@H]1Oc1ccc(CN2CCC[C@@H]2CO)cc1)c1ccc(C)cc1 the kinact/KI (pH 7.5, Table I) was 725000 M⁻¹ s⁻¹.

CCC[C@@H](NC(=O)N1C(=O)C(CC)(CC)[C@@H]1Oc1ccc(CN2C(C)CCCC2C)cc1)c1ccc(C)cc1 (stereo partly shown) [R4+R5=--CHMeCH2 CH2 CH2 CHMe--; R6=H] gave a kinact/KI (pH 7.5, Table I) of 1.15e+06 M⁻¹ s⁻¹.

CCC[C@@H](NC(=O)N1C(=O)C(CC)(CC)[C@@H]1Oc1ccc(CNC2CC2)cc1)c1ccc2c(c1)OCO2 gave a kinact/KI (pH 7.5, Table III) of 1.6e+06 M⁻¹ s⁻¹.

CCC[C@@H](NC(=O)N1C(=O)C(CC)(CC)[C@@H]1Oc1ccc(CN(CCOC)CCOC)c(Cl)c1)c1ccc(C)cc1 gave a kinact/KI (pH 7.5, Table III) of 1e+06 M⁻¹ s⁻¹.

CCC[C@@H](NC(=O)N1C(=O)C(CC)(CC)[C@@H]1Oc1ccc(CN(CC)CCOC)c(C)c1)c1ccc(C)cc1 was tested, and the kinact/KI (pH 7.5, Table III) was 450000 M⁻¹ s⁻¹.

With CCC[C@@H](NC(=O)N1C(=O)C(CC)(CC)[C@@H]1Oc1ccc(CN(C)C(C)COC)c(Cl)c1)c1ccc(C)cc1 (stereo partly shown) the kinact/KI (pH 7.5, Table III) was 650000 M⁻¹ s⁻¹.

CCC[C@@H](NC(=O)N1C(=O)C(CC)(CC)[C@@H]1Oc1ccc(C(C)N(C)CCOCCOC)cc1)c1ccc(C)cc1 (stereo partly shown) [R4=Me; R5=CH2 CH2 OCH2 CH2 OMe; R6=Me] was tested, and the kinact/KI (pH 7.5, Table I) was 825000 M⁻¹ s⁻¹.

With CCC[C@@H](NC(=O)N1C(=O)C(CC)(CC)[C@@H]1Oc1ccc(C2CCCN2CCOC)cc1)c1ccc(C)cc1 (mixture of isomers) [R4=CH2 CH2 OMe; R5+R6=--CH2 CH2 CH2 --, 3,3-Diethyl-1-[(R)-α-(n-propyl)-4-(methyl)benzylaminocarbonyl]-4-(S)-[4-{2-(RS)-(N-(2-methoxyethyl)pyrrolidino)}phenoxy]azetidin-2-one] the kinact/KI (pH 7.5, Table I) was 940000 M⁻¹ s⁻¹.

In the case of CCC[C@@H](NC(=O)N1C(=O)C(CC)(CC)[C@@H]1Oc1ccc(CNC(=O)CN(C)Cc2ccccc2)cc1)c1ccc(C)cc1 [R4=H; R5=COCH2 N(Me)Bn; R6=H], the kinact/KI (pH 7.5, Table I) is reported as 1.4e+06 M⁻¹ s⁻¹.

For CCC[C@@H](NC(=O)N1C(=O)C(CC)(CC)[C@@H]1Oc1ccc(CN(C)CCOC)cc1)c1ccc(OC)cc1, the kinact/KI (pH 7.5, Table III) was 900000 M⁻¹ s⁻¹.

In the case of CCC[C@@H](NC(=O)N1C(=O)C(CC)(CC)[C@@H]1Oc1ccc(CN2CC(C)NC(C)C2)cc1)c1ccc(C)cc1 (stereo partly shown) [R4+R5=--CH2 CHMeNCHMeCH2 --; R6=H], the kinact/KI (pH 7.5, Table I) is reported as 980000 M⁻¹ s⁻¹.

For CCC[C@@H](NC(=O)N1C(=O)C(CC)(CC)[C@@H]1Oc1ccc(C(C)N(C)CCOC)cc1)c1ccc(C)cc1 (stereo partly drawn) [R4=Me; R5=CH2 CH2 OMe; R6=Me, (4S)-3,3-Diethyl-1-[(R)-α-n-propyl-(4-methyl)benzylaminocarbonyl]-4-[(R,S)-4-((1-(2-methoxyethyl)methylamino)ethyl)phenoxy]azetidin-2-one], the kinact/KI (pH 7.5, Table I) was 600000 M⁻¹ s⁻¹.

With CCC[C@@H](NC(=O)N1C(=O)C(CC)(CC)[C@@H]1Oc1ccc(CN(C)CCSC)cc1)c1ccc(C)cc1 [R4=Me; R5=CH2 CH2 SMe; R6=H] the kinact/KI (pH 7.5, Table I) was 675000 M⁻¹ s⁻¹.

Work on CCC[C@@H](NC(=O)N1C(=O)C(CC)(CC)[C@@H]1Oc1ccc(CN(C)CCOC)c(C)c1)c1ccc(C)cc1 yielded a kinact/KI (pH 7.5, Table III) of 540000 M⁻¹ s⁻¹.

Work on CCC[C@@H](NC(=O)N1C(=O)C(CC)(CC)[C@@H]1Oc1ccc(CN(CC)CCOCCOC)c(OC)c1)c1ccc(C)cc1 yielded a kinact/KI (pH 7.5, Table III) of 1.7e+06 M⁻¹ s⁻¹.

With CCCNC(=O)NCc1ccc(O[C@@H]2N(C(=O)N[C@H](CCC)c3ccc(C)cc3)C(=O)C2(CC)CC)cc1 [R4=H; R5=CONHnPr; R6=H, (4S)-3,3-Diethyl-1-[(R)-α-(n-propyl)-4-(methyl)benzylaminocarbonyl]-4-[(4-((N-propyl)aminocarbonyl)aminomethyl)phenoxy]azetidin-2-one] the kinact/KI (pH 7.5, Table I) was 1.2e+06 M⁻¹ s⁻¹.

CCC[C@@H](NC(=O)N1C(=O)C(CC)(CC)[C@@H]1Oc1ccc(CN(CC)CCOC)cc1)c1ccc2occc2c1 showed a kinact/KI (pH 7.5, Table III) of 1.1e+06 M⁻¹ s⁻¹.

CCC[C@@H](NC(=O)N1C(=O)C(CC)(CC)[C@@H]1Oc1ccc(CN(CC)C(C)COC)cc1)c1ccc2occc2c1 (stereo partly shown) gave a kinact/KI (pH 7.5, Table III) of 1.05e+06 M⁻¹ s⁻¹.

CCC[C@@H](NC(=O)N1C(=O)C(CC)(CC)[C@@H]1Oc1ccc(CN2CCN(C(C)=O)CC2)cc1)c1ccc(C)cc1 [R4+R5=--CH2 CH2 N(Ac)CH2 CH2 --; R6=H] was tested, and the kinact/KI (pH 7.5, Table I) was 950000 M⁻¹ s⁻¹.

Compound CCC[C@@H](NC(=O)N1C(=O)C(CC)(CC)[C@@H]1Oc1ccc(CN2CCN(C(C)C)CC2)cc1)c1ccc(C)cc1 [R4+R5=--CH2 CH2 N(i-Pr)CH2 CH2 --; R6=H] has a kinact/KI (pH 7.5, Table I) of 1.2e+06 M⁻¹ s⁻¹.
